Laboratory results from article PMC10321576, “Cyclic peptides target the aromatic cage of a PHD-finger reader domain to modulate epigenetic protein function” (Chemical Science, 2023).
Peptide text beside a SMILES is read from it.

Columns and labels:
KDM7B Dual (PHD+JmjC) = target: T1, KDM7B Dual (PHD+JmjC) (Homo sapiens, UniProt Q9UPP1); assay: BLI binding; parameters: key to BLI Screening, KDM7B Dual: (+) = binding; (-) = no binding; (NS) = non-specific
T1 construct: Dual domain = PHD+JmjC; made in house
T1 sequence (Q9UPP1 37-483 limits assumed): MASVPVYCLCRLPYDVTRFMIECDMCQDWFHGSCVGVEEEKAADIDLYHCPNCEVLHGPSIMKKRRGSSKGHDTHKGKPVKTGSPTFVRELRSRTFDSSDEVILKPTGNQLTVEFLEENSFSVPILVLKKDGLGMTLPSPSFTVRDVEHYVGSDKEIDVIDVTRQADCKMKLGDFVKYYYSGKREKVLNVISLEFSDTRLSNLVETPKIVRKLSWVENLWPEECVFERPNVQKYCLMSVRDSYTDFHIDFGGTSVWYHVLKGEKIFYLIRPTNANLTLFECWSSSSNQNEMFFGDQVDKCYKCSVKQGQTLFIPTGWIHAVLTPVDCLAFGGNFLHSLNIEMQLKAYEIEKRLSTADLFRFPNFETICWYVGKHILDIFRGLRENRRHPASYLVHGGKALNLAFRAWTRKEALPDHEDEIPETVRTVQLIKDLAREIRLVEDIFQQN
Description: (§1) Figure S2. BLI for KDM7 proteins with cyclic peptides.
(§2) BLI traces for b inding to KDM7 protein domains immobilised by C-terminal His -tag on Ni -NTA
(§3) biosensors, against cyclic peptides. Response trace for each peptide concentration is represented by
(§4) a different colour, with the fitted curves overlaid in black.
(§5) concentration plotted, with 2-fold dilutions thereafter. Dual domain = PHD+JmjC. […]
(§6) against KDM7 and other protein domains. t1/2 = half life (0.693 / Koff)
(§7) (1 picture or pasted object on this page, not shown here)

KDM7B JmjC = target: T2, KDM7B JmjC (Homo sapiens, UniProt Q9UPP1); assay: BLI binding; parameters: key to BLI Screening, KDM7B JmjC: (+) = binding; (-) = no binding; (NS) = non-specific
T2 construct: made in house
T2 sequence (Q9UPP1 231-387 limits assumed): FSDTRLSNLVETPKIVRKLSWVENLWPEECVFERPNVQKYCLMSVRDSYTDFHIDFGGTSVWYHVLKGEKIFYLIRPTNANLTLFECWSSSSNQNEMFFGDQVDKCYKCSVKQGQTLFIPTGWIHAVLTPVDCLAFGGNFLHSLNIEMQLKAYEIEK
Description: as §1, §2, §3, §4, §5, §6, §7

KDM7B PHD-finger = target: T3, KDM7B PHD-finger (Homo sapiens, UniProt Q9UPP1); assay: Protein NMR 1H-15N HSQC chemical shift perturbation; format: binding; details: Free PHD vs PHD+peptide
T3 construct: KDM7B 1-66; His-tag (C); made in house
T3 sequence (Q9UPP1 1-66 isoform Q9UPP1-2): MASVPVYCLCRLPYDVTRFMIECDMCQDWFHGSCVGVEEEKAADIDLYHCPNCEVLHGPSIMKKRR
Description: To better elucidate OC9 interactions at a single residue level, we conducted protein NMR studies using isotopically labelled PHD-finger.[48] Comparison of ^1H–^15N HSQC spectra for isotopically labelled apo and OC9-bound protein (Fig. 4a), independently assigned using ^13C,^15N 3D experiments (Fig. S21, NMR ESI ^†), identified 24 out of 66 protein residues with significant (standard deviation, s > 1) chemical shift perturbation (CSP, Δδ) of their backbone amides (Fig. 4b).
(a) ^1H–^15N HSQC of KDM7B PHD-finger in the apo (black) or bound forms with OC9 (purple, 1 : 1) or H3_1–21K4me3 (green, 3 : 1). (b) ^1H and ^15N chemical shift changes for apo vs. + OC9 were combined and weighted to give chemical shift perturbation (CSP) (Δδ) values. Standard deviation (σ) of Δδ are indicated (>1 pink, >2 purple). (c) TALOS+ predicts similar secondary structure elements in apo and OC9-bound solution protein complexes (light grey) to those found in PDB ID 3KV4 (dark grey). […] (e) Shielded ^1H-NMR signals centred around −0.5 ppm belonging to the OC9 V10 γ-methyl groups are observed in some OC9–PHD complexes, but not in apo protein, or complexes with OC9 V10A and OC9 V10DV. The V10^OC9 γ-methyl signals have NOE interactions (black semi-circles) with the W29^PHD indole, which itself is shielded upon binding of OC9 (indicated by ΔδH values).

[1] = His-tagged protein on Ni-NTA biosensors, 1:1 binding model
[2] = qualitative assessment of binding by BLI

SMILES: CC(C)C[C@@H]1NC(=O)[C@H](Cc2ccc(O)cc2)NC(=O)[C@H](Cc2ccc(O)cc2)NC(=O)CSC[C@@H](C(N)=O)NC(=O)[C@H]([C@@H](C)O)NC(=O)[C@H](CCCNC(=N)N)NC(=O)[C@H](Cc2ccccc2)NC(=O)[C@H](C(C)C)NC(=O)[C@H](CO)NC(=O)[C@@H]2CCCN2C(=O)[C@H](Cc2ccc(O)cc2)NC(=O)[C@@H]2CCCN2C(=O)[C@H](Cc2c[nH]cn2)NC(=O)[C@H]([C@@H](C)O)NC1=O [OC9] (HELM PEPTIDE1{[O=C(C[*:3])[*:2]].Y.Y.L.T.H.P.Y.P.S.V.F.R.T.C.[am]}$PEPTIDE1,PEPTIDE1,1:R3-15:R3$$$V2.0)
- koff (KDM7B Dual (PHD+JmjC); 1:1 binding model): 0.00413 ± 3e-05 s⁻¹
- kon (KDM7B Dual (PHD+JmjC); 1:1 binding model): 691000 ± 7000 M⁻¹ s⁻¹
- Kd (KDM7B Dual (PHD+JmjC); [1]): 5.98 nM
- BLI Screening, KDM7B Dual (KDM7B Dual (PHD+JmjC); [2]): +
- Kd (KDM7B JmjC; 1:1 binding model, read-out: BLI pKD, KDM7B JmjC (converted)): > 1000 nM
- BLI KD, KDM7B JmjC (KDM7B JmjC; [1]): no affinity
- BLI Screening, KDM7B JmjC (KDM7B JmjC; [2]): -
- CSP Trp side chain (KDM7B PHD-finger; Trp side chain 1H-15N): 0.6107
- CSP Ala2 (KDM7B PHD-finger; residue Ala2 amide 1H-15N): 0.0035
- CSP Ala42 (KDM7B PHD-finger; residue Ala42 amide 1H-15N): 0.4429
- CSP Ala43 (KDM7B PHD-finger; residue Ala43 amide 1H-15N): 0.4556
- CSP Arg11 (KDM7B PHD-finger; residue Arg11 amide 1H-15N): 0.0082
- CSP Arg18 (KDM7B PHD-finger; residue Arg18 amide 1H-15N): 0.1460
- CSP Arg65 (KDM7B PHD-finger; residue Arg65 amide 1H-15N): 0.0120
- CSP Arg66 (KDM7B PHD-finger; residue Arg66 amide 1H-15N): 0.0057
- CSP Asn52 (KDM7B PHD-finger; residue Asn52 amide 1H-15N): 0.0450
- CSP Asp15 (KDM7B PHD-finger; residue Asp15 amide 1H-15N): 0.2640
- CSP Asp24 (KDM7B PHD-finger; residue Asp24 amide 1H-15N): 0.0779
- CSP Asp28 (KDM7B PHD-finger; residue Asp28 amide 1H-15N): 0.1748
- CSP Asp44 (KDM7B PHD-finger; residue Asp44 amide 1H-15N): 0.1350
- CSP Asp46 (KDM7B PHD-finger; residue Asp46 amide 1H-15N): 0.1724
- CSP Cys8 (KDM7B PHD-finger; residue Cys8 amide 1H-15N): 0.2344
- CSP Cys10 (KDM7B PHD-finger; residue Cys10 amide 1H-15N): 0.0550
- CSP Cys23 (KDM7B PHD-finger; residue Cys23 amide 1H-15N): 0.1441
- CSP Cys26 (KDM7B PHD-finger; residue Cys26 amide 1H-15N): 0.1542
- CSP Cys34 (KDM7B PHD-finger; residue Cys34 amide 1H-15N): 0.0336
- CSP Cys50 (KDM7B PHD-finger; residue Cys50 amide 1H-15N): 0.0486
- CSP Cys53 (KDM7B PHD-finger; residue Cys53 amide 1H-15N): 0.0638
- CSP Gln27 (KDM7B PHD-finger; residue Gln27 amide 1H-15N): 0.1502
- CSP Glu22 (KDM7B PHD-finger; residue Glu22 amide 1H-15N): 0.1442
- CSP Glu38 (KDM7B PHD-finger; residue Glu38 amide 1H-15N): 0.1925
- CSP Glu39 (KDM7B PHD-finger; residue Glu39 amide 1H-15N): 0.2336
- CSP Glu40 (KDM7B PHD-finger; residue Glu40 amide 1H-15N): 0.1019
- CSP Glu54 (KDM7B PHD-finger; residue Glu54 amide 1H-15N): 0.0569
- CSP Gly32 (KDM7B PHD-finger; residue Gly32 amide 1H-15N): 0.1798
- CSP Gly36 (KDM7B PHD-finger; residue Gly36 amide 1H-15N): 0.1053
- CSP Gly58 (KDM7B PHD-finger; residue Gly58 amide 1H-15N): 0.0436
- CSP His31 (KDM7B PHD-finger; residue His31 amide 1H-15N): 0.2040
- CSP His49 (KDM7B PHD-finger; residue His49 amide 1H-15N): 0.0826
- CSP His57 (KDM7B PHD-finger; residue His57 amide 1H-15N): 0.0542
- CSP Ile21 (KDM7B PHD-finger; residue Ile21 amide 1H-15N): 0.1523
- CSP Ile45 (KDM7B PHD-finger; residue Ile45 amide 1H-15N): 0.1111
- CSP Ile61 (KDM7B PHD-finger; residue Ile61 amide 1H-15N): 0.1500
- CSP Leu9 (KDM7B PHD-finger; residue Leu9 amide 1H-15N): 0.2010
- CSP Leu12 (KDM7B PHD-finger; residue Leu12 amide 1H-15N): 0.1857
- CSP Leu47 (KDM7B PHD-finger; residue Leu47 amide 1H-15N): 0.0914
- CSP Leu56 (KDM7B PHD-finger; residue Leu56 amide 1H-15N): 0.0558
- CSP Lys41 (KDM7B PHD-finger; residue Lys41 amide 1H-15N): 0.1054
- CSP Lys63 (KDM7B PHD-finger; residue Lys63 amide 1H-15N): 0.1309
- CSP Lys64 (KDM7B PHD-finger; residue Lys64 amide 1H-15N): 0.0270
- CSP Met20 (KDM7B PHD-finger; residue Met20 amide 1H-15N): 0.3618
- CSP Met25 (KDM7B PHD-finger; residue Met25 amide 1H-15N): 0.6758
- CSP Met62 (KDM7B PHD-finger; residue Met62 amide 1H-15N): 0.0955
- CSP Phe19 (KDM7B PHD-finger; residue Phe19 amide 1H-15N): 0.3281
- CSP Phe30 (KDM7B PHD-finger; residue Phe30 amide 1H-15N): 0.2483
- CSP Ser3 (KDM7B PHD-finger; residue Ser3 amide 1H-15N): 0.0045
- CSP Ser33 (KDM7B PHD-finger; residue Ser33 amide 1H-15N): 0.1228
- CSP Ser60 (KDM7B PHD-finger; residue Ser60 amide 1H-15N): 0.0469
- CSP Thr17 (KDM7B PHD-finger; residue Thr17 amide 1H-15N): 0.2705
- CSP Trp29 (KDM7B PHD-finger; residue Trp29 amide 1H-15N): 0.3903
- CSP Tyr7 (KDM7B PHD-finger; residue Tyr7 amide 1H-15N): 0.2658
- CSP Tyr14 (KDM7B PHD-finger; residue Tyr14 amide 1H-15N): 0.3173
- CSP Tyr48 (KDM7B PHD-finger; residue Tyr48 amide 1H-15N): 0.7926
- CSP Val4 (KDM7B PHD-finger; residue Val4 amide 1H-15N): 0.0230
- CSP Val6 (KDM7B PHD-finger; residue Val6 amide 1H-15N): 0.1610
- CSP Val16 (KDM7B PHD-finger; residue Val16 amide 1H-15N): 0.3656
- CSP Val35 (KDM7B PHD-finger; residue Val35 amide 1H-15N): 0.0666
- CSP Val37 (KDM7B PHD-finger; residue Val37 amide 1H-15N): 0.0847
- CSP Val55 (KDM7B PHD-finger; residue Val55 amide 1H-15N): 0.0250
